{"source": "patent US12329733B2", "about": "“Acetyl-leucine or a pharmaceutically acceptable salt thereof for improved mobility and cognitive function” (INTRABIO LTD., priority 2016, dated 2025)", "key": {"[1]": {"test_system": "patient with postural imbalance", "test": "timed 8-meter-walking test", "assay_type": "in vivo, human", "settings": "Example 6: 5 g/day for 1 month; baseline 6.5 sec", "excerpt": "(§1) Baseline (prior to commencement of treatment): Maximal distance to walk until the patient could not walk anymore because of fatigue was 1 km. The […] up-and-go test yielded 25.4 sec. SARA yielded 6.5/40. […] Tandem stance and gait was not possible to perform due to an increased fall risk. Mean timed 8-meter-walking test was 6.5 sec."}, "subjects / patients": {"test_system": "subjects / patients", "test": "adverse effects / tolerability", "assay_type": "in vivo, human", "settings": "for tolerability: 3 g/day one week then 5 g/day; for Adverse Effects: 5 g/day"}, "[2]": {"test_system": "subjects (cognitive function)", "test": "subject and family reports of cognitive function and alertness", "assay_type": "in vivo, human", "settings": "for Details on Subjective Improvement / Subjective Improvement on treatment?: 5 g/day", "excerpt": "“Cognitive function” can mean any mental process that involves a symbolic operation, for example, perception, memory, creation of imagery, awareness, reasoning, thinking and capacity for judgment. Measures of cognitive functioning include assessment tools designed to measure, for example: (a) general intelligence, (b) nonverbal intelligence, (c) achievement, (d) attention/executive functioning, (e) memory and learning, (f) visual-motor and motor functioning and (g) language. Such assessment tools are well-known in the art and include, for example, Wechsler Adult Intelligence Scale and Woodcock-Johnson III Tests of Cognitive Abilities (both for assessing general intelligence), Raven Progressive Matrices (for assessing nonverbal intelligence), Wide Range Achievement Test and Woodcock-Johnson III Tests of Achievement (for assessing academic achievement), Conners' Continuous Performance Test II (for assessing attention/executive functioning), Wide Range Assessment of Memory and Learning (for assessing memory and learning), Bender Visual-Motor Gestalt Test, Halstead-Reitan Grip Strength Test, Halstead-Reitan Finger Tapping Test and Lafayette Grooved Pegboard Task (all for assessing visual-motor and motor functioning) and Peabody Picture Vocabulary Test (for assessing language)."}, "[3]": {"test_system": "patient with postural imbalance", "test": "Scale for the Assessment and Rating of Ataxia (SARA)", "assay_type": "in vivo, human", "settings": "Example 6: 5 g/day for 1 month; baseline 6.5/40", "excerpt": "(§2) The patient was examined clinically by means of the following clinical assessments: maximal distance to walk; timed Up and Go test; Scale for the Assessment and Rating of Ataxia (SARA)."}, "[4]": {"test_system": "subjects with no apparent dysfunction in cognitive ability or movement/balance", "test": "balancing ability (eyes closed, non-dominant foot lifted, timed)", "assay_type": "in vivo, human", "procedure": "Due to reported improvement in balance on treatment we measured balancing ability at the end of the treatment period and at the end of the washout period. This assessment required the subject to close their eyes and lift their non-dominant foot around 6 inches off the ground. The subject was then timed to see how long they could remain upright and without significant wobbles. This was repeated three times, and the values averaged. […] This assessment required the subject to close their eyes and lift their non-dominant foot around 6 inches off the ground. The subject was then timed to see how long they could remain upright and without significant wobbles. This was repeated three times, and the values averaged. We measured balancing ability at the end of the treatment period and at the end of the washout period. This assessment required the subject to close their eyes and lift their non-dominant foot around 6 inches off the ground. The subject was then timed to see how long they could remain upright and without significant wobbles. This was repeated three times, and the values averaged."}, "vertigo": {"test_system": "vertigo", "settings": "clinical results reported by various authors; cited from earlier work"}, "[5]": {"test_system": "patients with Niemann-Pick type C", "settings": "12 patients, ref (7); cited from earlier work"}, "[6]": {"test_system": "patients with gait disorder", "test": "quantitative gait analysis (“gait-rite”, video)", "assay_type": "in vivo, human"}, "[7]": {"test_system": "patient with postural imbalance", "test": "maximal distance to walk", "assay_type": "in vivo, human", "settings": "Example 6: person; 5 g/day (2/1.5/1.5 g) for 1 month; baseline 1 km", "excerpt": "as §2, §1"}, "[8]": {"settings": "Example 1: person, 4.5 g/day, after 2-3 weeks of treatment"}}, "note": "“Also recorded” adds a separate entry of the source."}
{"smiles": "CC(=O)NC(CC(C)C)C(=O)O", "note": "(racemic) [acetyl-DL-leucine]", "values": [{"measurement": "Mean timed 8-meter-walking test", "setting": "[1]", "result": 4.4, "unit": "s"}, {"measurement": "side effects", "setting": "subjects / patients; Example 1: person, 4.5 g per day, over eighteen months", "result": "no side effects"}, {"measurement": "tolerability", "setting": "subjects / patients; Example 3: person", "result": "well tolerated"}, {"measurement": "tolerability", "setting": "subjects / patients; Example 4: person", "result": "very well tolerated"}, {"measurement": "side effects", "setting": "subjects / patients; Example 6: 2 g/1.5 g/1.5 g per day dosage regimen", "result": "Sleepiness"}, {"measurement": "side effects after dose reduction", "setting": "subjects / patients; Example 6: reduced to 1 g/1 g/1 g daily after 1 month, listed as Tanganil®", "result": "cease in these side-effect symptoms; also recorded: have not returned"}, {"measurement": "Adverse Effects", "setting": "subjects / patients; Example 7: 66 M, first week on medication", "result": "mild dizziness/lightheadedness on one occasion"}, {"measurement": "Adverse Effects", "setting": "subjects / patients; Example 8: 29 M, 4 weeks", "result": "None reported"}, {"measurement": "Adverse Effects", "setting": "subjects / patients; Example 9: 55 F, 4 weeks", "result": "None reported"}, {"measurement": "Adverse Effects", "setting": "subjects / patients; Example 10: 50 M, 2 weeks", "result": "None reported"}, {"measurement": "Adverse Effects", "setting": "subjects / patients; Example 11: 53 M, 4 weeks", "result": "None reported"}, {"measurement": "Adverse Effects", "setting": "subjects / patients; Example 12: 48 F, 4 weeks", "result": "None reported"}, {"measurement": "cognition after ceasing treatment", "setting": "[2]; Example 1: after one-month course ceased", "result": "gradually declined to their pre-treatment status over one month"}, {"measurement": "alertness on waking (subject's description)", "setting": "[2]; [8]", "result": "fully alert on waking"}, {"measurement": "cognitive function, spatial awareness and general demeanor (family)", "setting": "[2]; [8]", "result": "significant improvement in their cognitive function, spatial awareness and general demeanor"}, {"measurement": "confusion evident prior to treatment", "setting": "[2]; Example 1: remains on 4.5 g per day", "result": "entirely absent"}, {"measurement": "communication and executive function (family)", "setting": "[2]; Example 6: 5 g/day for 1 month", "result": "executive function improved"}, {"measurement": "energy, agility (subjective)", "setting": "[2]; Example 6: 5 g/day for 1 month", "result": "more energy, was more agile and interactive"}, {"measurement": "Details on Subjective Improvement", "setting": "[2]; Example 7: 66 M", "result": "improvement in general alertness and a shortening of the time required to go from ‘asleep’ to ‘fully awake’"}, {"measurement": "Subjective Improvement on treatment?", "setting": "[2]; Example 7: 66 M", "result": "Yes"}, {"measurement": "Details on Subjective Improvement", "setting": "[2]; Example 8: 29 M", "result": "improvement in general alertness. They also reported a decrease in anxiety"}, {"measurement": "Subjective Improvement on treatment?", "setting": "[2]; Example 8: 29 M", "result": "Yes"}, {"measurement": "Details on Subjective Improvement", "setting": "[2]; Example 9: 55 F", "result": "shortening of the time required to go from ‘asleep’ to ‘fully awake’"}, {"measurement": "Subjective Improvement on treatment?", "setting": "[2]; Example 9: 55 F", "result": "Yes"}, {"measurement": "Subjective Improvement on treatment?", "setting": "[2]; Example 10: […]", "result": "no difference between on and off medication"}, {"measurement": "Subjective Improvement on treatment?", "setting": "[2]; Example 10: […], listed as acetyl-leucine", "result": "No"}, {"measurement": "Details on Subjective Improvement", "setting": "[2]; Example 11: 53 M", "result": "improvement in general alertness and a shortening of the time required to go from ‘asleep’ to ‘fully awake’"}, {"measurement": "Subjective Improvement on treatment?", "setting": "[2]; Example 11: 53 M", "result": "Yes"}, {"measurement": "Details on Subjective Improvement", "setting": "[2]; Example 12: 48 F", "result": "feeling less tired than usual and taking less time than was usual to go from asleep to fully awake"}, {"measurement": "Subjective Improvement on treatment?", "setting": "[2]; Example 12: 48 F", "result": "Yes"}, {"measurement": "SARA", "setting": "[3]", "result": "2 /40"}, {"measurement": "time able to remain balanced (average of 3 tests)", "setting": "[4]; Example 7: 66 M, end of washout period", "result": 4.01, "unit": "s"}, {"measurement": "time able to remain balanced (average of 3 tests)", "setting": "[4]; Example 7: 66 M, last day of treatment period", "result": 7.27, "unit": "s"}, {"measurement": "time able to remain balanced (average of 3 tests)", "setting": "[4]; Example 9: 55 F, end of washout period", "result": 8, "unit": "s"}, {"measurement": "time able to remain balanced (average of 3 tests)", "setting": "[4]; Example 9: 55 F, last day of treatment period", "result": 12, "unit": "s"}, {"measurement": "time able to remain balanced (average of 3 tests)", "setting": "[4]; Example 11: 53 M, end of washout period", "result": 3.1, "unit": "s"}, {"measurement": "time able to remain balanced (average of 3 tests)", "setting": "[4]; Example 11: 53 M, last day of treatment period", "result": 7.9, "unit": "s"}, {"measurement": "cases with improvement in vertigo symptomology", "setting": "vertigo", "result": "more than 95%"}, {"measurement": "ataxic symptoms", "setting": "[5]", "result": "improvement in ataxic symptoms"}, {"measurement": "video analysis of gait", "setting": "[6]; Example 4: 3 weeks after beginning treatment", "result": "now even able to run"}, {"measurement": "Coefficient of variation (CV) of stride time: CV = (standard deviation/mean) × 100", "setting": "[6]; Example 4: after 3 weeks' treatment, before treatment 1.6", "result": 1.8}, {"measurement": "Spreading width (distance between the heel center of one footprint to the line of movement of the other foot)", "setting": "[6]; Example 4: after 3 weeks' treatment, before treatment 9.3", "result": 8.1, "unit": "cm"}, {"measurement": "% of the time of two periods in the gait cycle in which both feet at the same time are in contact with the ground", "setting": "[6]; Example 4: after 3 weeks' treatment, before treatment 27.2", "result": 25.5, "unit": "%"}, {"measurement": "Cadence", "setting": "[6]; Example 4: after 3 weeks' treatment, before treatment 92", "result": 100, "unit": "steps/minute"}, {"measurement": "Step cycle length (distance between two consecutive contacts of a foot on the ground)", "setting": "[6]; Example 4: after 3 weeks' treatment, before treatment 116", "result": 116, "unit": "cm"}, {"measurement": "Maximum walking speed (maximal gait velocity)", "setting": "[6]; Example 4: after 3 weeks' treatment, before treatment 141", "result": 157, "unit": "cm/s"}, {"measurement": "Natural walking speed (self-chosen gait velocity)", "setting": "[6]; Example 4: person, after 3 weeks' treatment, before treatment 88", "result": 96, "unit": "cm/s"}, {"measurement": "self-chosen gait velocity", "setting": "[6]; Example 5: Day 42, 3 gram per day, from 55 cm/sec at Day 0", "result": 62, "unit": "cm/s"}, {"measurement": "maximal gait velocity", "setting": "[6]; Example 5: Day 42, 3 gram per day, from 84 cm/sec at Day 0", "result": 130, "unit": "cm/s"}, {"measurement": "Maximal distance to walk", "setting": "[7]", "result": 1.5, "unit": "km"}]}
